A short description of data set [1]: Protein binding via Transil assay, human plasma. Type of data set: in vitro ADME. Conditions: Human (male) plasma, Transil assay; read-out: Fraction unbound. An excerpt: The distribution of a test substance between Transil® (phosphatidylcholine lipid bilayers immobilized on silica beads) and plasma is a characteristic feature of any pharmaceutical compound and is dependent on its extent of binding to plasma proteins. By comparing the distribution between Transil® and buffer with the distribution between Transil® and plasma of any species of interest, the unbound fraction in the plasma of the respective animal species can be calculated in vitro. The respective plasma and buffer concentrations were determined via a radioactivity analysis. A detailed description of the method and its validation was published by Schuhmacher et al. (2).

The test system of data set [2] is thromboxane analog U46619 induced PAH in minipigs. As to the kind of experiment: Haemodynamics (PAP, BP) in the anesthetized thromboxane challenged PAH minipig after inhaled (nebulized) application (C-2.1). In kind it is in vivo, Göttingen minipig. Conditions: inhaled 10 μg/kg. The essentials:
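Anesthetized, ventilated Göttingen minipigs (2-6 kg) given continuous infusion (0.3-0.75 μg/kg/min) to raise mean PAP above 25 mmHg, dosing starting after a 30 min plateau. Compound in 1% DMSO/0.2% citric acid, pH 8, nebulized via Aeroneb Pro into the inspiratory arm (~7 min; stock 300 μg/kg). PAP by Swan-Ganz catheter, BP via carotid catheter.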

Values joined by “and” are separate entries in the source; they are usually repeats but may differ in a detail not shown here. Equal entries are not always repeated.

On to `O=C(O)CCCCN(CCc1ccccc1OCc1ccc(CCc2ccccc2)cc1)Cc1ccc(C(=O)O)cc1` [comparative example 1, 4-[((4Carboxybutyl)-{2-[(4-phenethylbenzyl)oxy]phenethyl}amino)methyl]benzoic acid], for which the free fraction (fraction unbound) (commonly free concentration divided by total concentration) in data set [1] was found to be 0.00392. Besides, the “% changes in BP vs baseline” value in data set [2] (0 min vs. start inhalation, listed as Cinaciguat) is 100% and 101%; in data set [2] (10 min vs. start inhalation, listed as Cinaciguat), 89% and 86%; in data set [2] (20 min vs. start inhalation, listed as Cinaciguat) it was 83% and 82%; in data set [2] (30 min vs. start inhalation), 82%; in data set [2] (40 min vs. start inhalation), 84%; in data set [2] (50 min vs. start inhalation, listed as Cinaciguat) it was 87% and 85%. For the same molecule, the “% changes in BP vs baseline” value in data set [2] (60 min vs. start inhalation, listed as Cinaciguat) was 91% and 87%; in data set [2] (70 min vs. start inhalation, listed as Cinaciguat), 94% and 88%; in data set [2] (80 min vs. start inhalation, listed as Cinaciguat), 95% and 90%; in data set [2] (90 min vs. start inhalation, listed as Cinaciguat), 99% and 92%; in data set [2] (−5 min vs. start inhalation, listed as Cinaciguat), 100% and 99%.

Source of the values: patent US12138256B2, “Treatment of cardiopulmonary disorders” (Bayer Aktiengesellschaft, priority 2021, dated 2024).
